{"source": "paper PMC6934184", "about": "“Selective DNA-PKcs inhibition extends the therapeutic index of localized radiotherapy and chemotherapy” (The Journal of Clinical Investigation, 2019)", "molecular_target": "T1, SRC (Homo sapiens, UniProt P12931)", "T1 construct": "purchased Thermo Fisher Scientific (Life Technologies) SelectScreen", "T1 sequence (P12931 whole entry)": "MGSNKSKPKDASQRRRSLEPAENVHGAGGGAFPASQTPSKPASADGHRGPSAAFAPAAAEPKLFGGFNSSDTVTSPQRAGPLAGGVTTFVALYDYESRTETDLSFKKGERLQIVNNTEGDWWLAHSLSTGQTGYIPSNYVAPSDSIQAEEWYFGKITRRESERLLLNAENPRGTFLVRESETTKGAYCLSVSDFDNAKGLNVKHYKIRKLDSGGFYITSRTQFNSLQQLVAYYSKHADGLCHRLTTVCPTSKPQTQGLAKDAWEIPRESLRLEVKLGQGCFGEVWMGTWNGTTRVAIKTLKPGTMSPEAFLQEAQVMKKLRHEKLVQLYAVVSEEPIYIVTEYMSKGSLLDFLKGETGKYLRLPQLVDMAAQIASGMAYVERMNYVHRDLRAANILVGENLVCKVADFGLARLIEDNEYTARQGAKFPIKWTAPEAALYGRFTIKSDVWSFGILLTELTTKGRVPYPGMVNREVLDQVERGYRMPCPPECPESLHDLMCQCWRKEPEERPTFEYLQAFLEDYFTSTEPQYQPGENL", "assay": "SelectScreen Z'LYTE", "assay_type": "biochemical", "procedure,_shortened": "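NU5455 was profiled across the SelectScreen Broad panel of kinase activity and binding assays. Z'LYTE reactions such as CSF1R ran at apparent Km ATP, while the Adapta CAMK1 assay used ATP listed as 10. Values are given as percent.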", "data": [{"smiles": "CN(C(=O)CN1CCOCC1)c1ccc2sc3c(-c4cccc5c(=O)cc(N6CC7CCC(C6)O7)oc45)cccc3c2c1", "note": "[NU5455]", "values": [{"measurement": "inhibition at 1 µM", "value": 9.5, "unit": "%"}]}]}
